Measurements published in PMC9119314 (Frontiers in Pharmacology, 2022).
“Also recorded” adds a separate entry of the source. Read-outs that look alike come from different tables or passages of the source.

Tests used:
P. berghei sporozoites = experiment: P. berghei liver-stage assay (sporozoites in Hep G2-A16-CD81 cells, luciferase); type: cell-based, Plasmodium berghei; settings: Plasmodium berghei, HepG2-A16-CD81, 48 h, read-out: Activity against the P. berghei liver stage, IC50
Protocol: (§1) Briefly, 3000 Hep G2-A16-CD81 cells/well were seeded in 1536-well plates (Greiner Bio). 50 nL of the test and control compound diluted in DMSO was added and incubated for 24 h. […] The plates were centrifuged for 5 min at 330 × g and incubated at 37°C. Forty-eight hours post infection, 2 μL of luciferin reagent (Promega BrightGlo) was added to each well, and the luciferase activity was detected using a Perkin Elmer Envision plate reader. […] To counter-screen for cellular toxicity, Hep G2-A16-CD81 cells were seeded as above for the sporozoite liver-stage assay but in the absence of sporozoites. Toxicity measurements were performed by adding Promega CellTiterGlo® (2 μL), followed by luminescence measurements. Curve fitting was done as described above using puromycin (25 μM) as a positive control and DMSO as negative control wells.

P. falciparum 3D7 = experiment: In vitro antiplasmodial activity, P. falciparum 3D7 (SYBR Green I); type: cell-based; settings: Plasmodium falciparum, read-out: Activity against P. falciparum 3D7, IC50
Protocol: (§2) P. falciparum (3D7 clone) and P. knowlesi (A1-H.1 clone) were maintained in culture in RPMI 1640 supplemented with 25 mM HEPES, 25 mM NaHCO3, 10 mM D-glucose, 2 mM L-glutamine, 50 mg/L hypoxanthine, 25 mg/L gentamicin sulfate, 5 g/L Albumax II, and 10% (v/v) equine serum (Thermo Fisher Scientific, 26-050-088). The P. falciparum (3D7) and P. knowlesi (A1-H.1) parasites were grown in human A^+ red blood cells (National Health Blood and Transplant, United Kingdom). The parasites were incubated in sealed flasks at 37°C under a culture gas mixture of 96% N2, 3% CO2, and 1% O2. ([van Schalkwyk et al., 2019]). The compounds were initially dissolved in DMSO prior to diluting in RPMI. All experiments were initiated using unsynchronized parasites with both the parasitemia and hematocrit set to 1%. Drug susceptibility assays were set up in 96-well, flat-bottom microplates in a final volume of 200 μL, as described previously ([van Schalkwyk et al., 2017]). The controls were included for the background fluorescence (0% viability; parasites exposed to a supralethal 10 μM chloroquine concentration) and 100% growth (parasites in drug-free wells). The plates were incubated for one complete life cycle (27 h for P. knowlesi or 48 h for P. falciparum in vitro) at 37°C in a modular incubation chamber (Billups-Rothenburg Inc.) under the culture gas. Upon termination of the assay, the plates were stored at −20°C overnight. The SYBR Green I fluorescent method was used to measure parasite survival ([Bennett et al., 2004]; [Smilkstein et al., 2004]). After the microplates were thawed, 100 μL from each well was transferred into a duplicate plate. To this was added 100 μL of SYBR green solution [SYBR Green I (Thermo Fisher Scientific, S7563), diluted 1:5000 in a lysis buffer made of 20 mM Tris, 5 mM EDTA, 0.008% (w/v) saponin, 0.08% (v/v) Triton X-100, pH 7.5]. The plates were stored in the dark for 1 h before fluorescence was read at a 490 nm excitation wavelength and a 520 nm emission wavelength on a Spectramax M3 microplate reader (Molecular Devices) ([van Schalkwyk et al., 2017]). The background fluorescence (wells with parasites at 0% viability) was subtracted from all drug assay wells, and the parasite proliferation was determined as a percentage of the fluorescence in the drug-free control wells.

P. knowlesi A1-H.1 = experiment: In vitro antiplasmodial activity, P. knowlesi A1-H.1 (SYBR Green I); type: cell-based, Plasmodium knowlesi; settings: Plasmodium knowlesi, 27 h, read-out: Activity against P. knowlesi A1-H.1, IC50, 27 h, ± SD
Protocol: as §2

[1] = tested on: P. falciparum (NF54-Mal8p1.16-GFP-Luc) late-stage gametocytes; experiment: microbe, parasite or virus in culture; type: cell-based, Plasmodium falciparum; settings: Plasmodium falciparum; for inhibition at 5 µM: NF54, read-out: Inhibition of late-stage gametocytes
Protocol: Gametocytes were produced as per [Reader et al. (2015]; [2021)] from P. falciparum NF54-Mal8p1.16-GFP-Luc ([Adjalley et al., 2011]), and each batch was validated for viability and functionality before use. […] Drug assays were set up on day 10 (representing late gametocytes, >90% stage IV/V gametocytes) using a 2–3% gametocytemia, 1.5% hematocrit culture. The drug pressure was for 48 h under stationary, hypoxic conditions (90% N2, 5% O2, and 5% CO2) at 37°C. Luciferase activity was determined in 30 μL parasite lysates by adding 30 μL luciferin substrate (Promega Luciferase Assay System) at room temperature and detection of resultant bioluminescence at an integration constant of 10 s with the GloMax®-Multi + Detection System with Instinct® Software. Methylene blue (5 μM) and an internal control (MMV390048, 5 μM) were routinely included as controls.

Hep G2-A16-CD81 cells = experiment: Hep G2 cellular toxicity counter-screen (CellTiterGlo); type: cell-based; settings: HepG2-A16-CD81, no sporozoites, ± SE, read-out: Activity against Hep G cells
Protocol: as §1

[2] = Acute oral toxicity in mice; type: in vivo; settings: oral, 20, 50 and 100 mg/kg/dose × 3 consecutive days; up to 100 mg/kg/dose; 2 as hydrochloride, 4–6 as citrate
Protocol: Female NIH Swiss mice aged 6–12 weeks were used (Envigo, Blackthorn, United Kingdom). The mice were kept in cages housed in isolation cabinets in an air-conditioned room with regular alternating cycles of light and darkness. They received Teklad 2018 diet (Envigo, Blackthorn, United Kingdom) and water ad libitum. All animal procedures were carried out under a project license issued by the UK Home Office, and UK National Cancer Research Institute Guidelines for the Welfare of Animals were followed throughout. […] A group of two untreated control animals was included at each dose level. Following treatment, the body weight was measured on a regular basis, and behavior and general appearance were monitored visually to assess for deleterious effects (e.g., dehydration, impaired mobility, hunched posture, a low body temperature, ulceration, and significant bodyweight loss), with any effects during the study recorded. […] If no deleterious effects were seen after at least 18 days of study, then the animals were sacrificed, and the dose was considered non-toxic.

P. falciparum K1 [3] = tested on: P. falciparum K1; design: method as in Onyeibor et al., 2005; settings: strain K1; ref Onyeibor et al., 2005; read-out: Activity against P. falciparum K1, IC50; cited from earlier work
P. berghei = settings: I.P., 25 mg/kg; ref Onyeibor et al., 2005; cited from earlier work
A2780/WT cells = experiment: Chemosensitivity MTT assay, A2780 wild type; type: cell-based, human; settings: ± SE, read-out: Activity against A2780/WT cells, IC50
Protocol: (§3) The chemosensitivity of compounds 3–6 was assessed in the wild-type immortalized human ovarian adenocarcinoma cell line A2780 and its daughter cell lines, which are resistant to the standard cancer chemotherapeutics doxorubicin (A2780/ADR) and cisplatin (A2780/CIS, all cell lines from ECACC, Salisbury, United Kingdom). A modified MTT assay was used ([Shnyder et al., 2008]). Cells (2 × 10^4/ml) were inoculated into each well of a 96-well plate and incubated for 24 h at 37°C in a humidified atmosphere containing 5% CO2. Compounds were then added at a range of concentrations to each well, and the plates were then incubated for a further 96 h. After 96 h, the culture medium was removed and 200 μL of 0.5 mg ml^–1 MTT solution (Sigma) in the complete medium was added to each well. Following a further 4 h incubation, the solution was removed from each well and 150 μL of DMSO was added to solubilize the formazan crystals resulting from MTT conversion. The absorbance values for the resulting solutions were read at 540 nm on an Azure 96-well microplate reader (Azure Biosynstems Inc.), and the cell survival was calculated as the absorbance of treated cells divided by the control.

A2780/cis cells = experiment: Chemosensitivity MTT assay, cisplatin-resistant A2780/CIS; type: cell-based, human; settings: 96 h, ± SE, read-out: Activity against A2780/cis cells, IC50
Protocol: as §3

A2780/ADR cells = experiment: Chemosensitivity MTT assay, doxorubicin-resistant A2780/ADR; type: cell-based; settings: Homo sapiens, 96 h, ± SE, read-out: Activity against A2780/ADR cells, IC50
Protocol: as §3, with “A” for “The chemosensitivity of compounds 3–6 was assessed in the wild-type immortalized human ovarian adenocarcinoma cell line A2780 and its daughter cell lines, which are resistant to the standard cancer chemotherapeutics doxorubicin (A2780/ADR) and cisplatin (A2780/CIS, all cell lines from ECACC, Salisbury, United Kingdom). A”

P. falciparum K1 [4] = experiment: In vitro antiplasmodial activity, P. falciparum K1 (lactate dehydrogenase assay); type: cell-based, Plasmodium falciparum; settings: Plasmodium falciparum, read-out: Activity against P. falciparum K1, IC50
Protocol: P. falciparum (K1 clone) was maintained in human erythrocytes prepared from the donated blood samples (blood groups unknown, Ethical Tissue, University of Bradford), suspended in the RPMI 1640 medium as previously described ([Wright et al., 2001]), except that serum was replaced with Albumax II, [5% (^w/v)]. […] Twofold serial dilutions were made in 96-well microtiter plates in duplicate, and infected erythrocytes were added to give a final volume of 100 µL with 2.5% hematocrit and 1% parasitemia. Chloroquine diphosphate was used as a positive control, and uninfected and infected erythrocytes without compounds were included in each test. The plates were placed into a modular incubator; gassed with 93% nitrogen, 3% oxygen, and 4% carbon dioxide; and incubated at 37°C for 48 h. The parasite growth was assessed by measuring lactate dehydrogenase activity as described by [Makler et al. (1993)]. The reagent used contained the following in each mL: acetylpyridine adenine dinucleotide (APAD), 0.74 mg; lithium lactate, 19.2 mg; diaphorase, 0.1 mg; Triton X-100, 2 μL; nitroblue tetrazolium, 1 mg; and phenazine ethosulphate, 0.5 mg. Fifty microliter of this reagent was added to each well and mixed; plates were incubated for 15 min at 37°C. The optical densities were read at 550 nm using an Azure 96-well microplate reader (Azure Biosystems Inc.), and % inhibition of growth was calculated by comparison with the control values. IC50 values were determined using linear regression analysis (Microsoft Excel). A minimum of three separate determinations was carried out for each compound.

[5] = tested on: T. brucei bloodstream forms (strain 427, derivative 221); experiment: In vitro activity against T. brucei bloodstream forms (resazurin); type: cell-based, Trypanosoma brucei; settings: Trypanosoma brucei, bloodstream forms, hydrochloride salts except 6 (citrate), ± SE
Protocol: Bloodstream form T. brucei (strain 427, derivative 221) was maintained in modified Iscove’s medium, as described previously ([Taylor et al., 2013]). […] The parasites were diluted to 1 × 10^4 ml^−1, the compound was added at a range of concentrations, and the plates were incubated at 37°C in 5% CO2 for 48 h. Resazurin was then added to each well, and the plates were incubated for a further 16 h. Fluorescence intensities were determined using a BMG FLUOstar Omega plate reader (excitation 545 nm, emission 590 nm), and data were analyzed using Graph Pad Prism 9.0 software. […]

## O=C1C(O)=C([C@H]2CC[C@H](c3ccc(Cl)cc3)CC2)C(=O)c2ccccc21 [Atovaquone, reference compound]
P. berghei sporozoites
  IC50: 0.383 nM

## Cn1c2c3cc(Br)ccc3nc-2cc2cc(Br)ccc21 [Compound 2, 2,7-dibromocryptolepine]
P. falciparum 3D7; chloroquine-sensitive strain 3D7, 48 h
  IC50: 30 ± 6 nM
P. knowlesi A1-H.1
  IC50: 30 ± 4.5 nM
[1]; NF54, 48 h, read-out: Activity against late-stage gametocytes IC50
  IC50: 2000 ± 170 nM
Hep G2-A16-CD81 cells
  IC50: 4940 ± 1810 nM
[2]
  Acute oral toxicity in mice: No toxicity was seen; also recorded: not toxic
P. falciparum K1 [3]
  IC50: 49 ± 20 nM
P. berghei
  Suppression of parasitemia in mice: 90%
  Toxicity to mice in the antimalarial test: without apparent toxicity

## N.N.[Cl][Pt][Cl] [Cisplatin, reference compound]
A2780/WT cells; 96 h
  IC50: 3470 ± 2200 nM
A2780/cis cells
  IC50: 24700 ± 2750 nM

## COc1cccc2c1C(=O)c1c(O)c3c(c(O)c1C2=O)C[C@@](O)(C(=O)CO)C[C@@H]3O[C@H]1C[C@H](N)[C@H](O)[C@H](C)O1 [Doxorubicin, reference compound]
A2780/WT cells; Homo sapiens, A2780, 96 h
  IC50: 70 ± 60 nM
A2780/ADR cells
  IC50: 3030 ± 350 nM

## CS(=O)(=O)c1ccc(-c2cnc(N)c(-c3ccc(C(F)(F)F)nc3)c2)cc1 [MMV 390048, reference compound]
[1]
  inhibition at 5 µM: 96.2%

## CN(C)c1ccc2nc3ccc(=[N+](C)C)cc-3sc2c1 [Methylene blue, reference compound]
[1]
  inhibition at 5 µM: 96%

## CCN(CC)CCCC(C)Nc1ccnc2cc(Cl)ccc12 (stereo not drawn) [Chloroquine diphosphate, reference compound]
P. falciparum K1 [4]; K1, 48 h
  IC50: 350 ± 140 nM
P. falciparum 3D7; 3D7, 48 h
  IC50: 12 ± 3 nM
P. knowlesi A1-H.1
  IC50: 20 ± 3 nM

## C[n+]1c2ccccc2cc2[n-]c3ccc(Br)cc3c21 [Compound 3, 7-Bromocryptolepine]
P. falciparum K1 [4]; chloroquine-resistant strain K1, 48 h, mean ± SE
  IC50: 150 ± 30 nM
[5]; 64 h, 48 h + 16 h resazurin
  IC50: 199 ± 15 nM
[5]
  IC90: 256 ± 6 nM
A2780/WT cells; Homo sapiens, A2780, 96 h
  IC50: 70 ± 10 nM
A2780/ADR cells
  IC50: 170 ± 40 nM
A2780/cis cells; Homo sapiens, A2780cis
  IC50: 230 ± 20 nM
